The text below walks through data of ChEMBL document CHEMBL1131710, “N-substituted-3-arylpyrrolidines: potent and selective ligands at serotonin 1A receptor” (Bioorg Med Chem Lett, 1999).

Format in all cases: tissue-based
One test has as its target D(1A) dopamine receptor (Rattus norvegicus, UniProt P18901). Description: In vitro binding affinity against Dopamine receptor D1 of rat striatum using [3H]SCH-23390.
For test [1], the target named is T1, 5-hydroxytryptamine receptor 1A (Rattus norvegicus, UniProt P19327).
T1 sequence (P19327 whole entry): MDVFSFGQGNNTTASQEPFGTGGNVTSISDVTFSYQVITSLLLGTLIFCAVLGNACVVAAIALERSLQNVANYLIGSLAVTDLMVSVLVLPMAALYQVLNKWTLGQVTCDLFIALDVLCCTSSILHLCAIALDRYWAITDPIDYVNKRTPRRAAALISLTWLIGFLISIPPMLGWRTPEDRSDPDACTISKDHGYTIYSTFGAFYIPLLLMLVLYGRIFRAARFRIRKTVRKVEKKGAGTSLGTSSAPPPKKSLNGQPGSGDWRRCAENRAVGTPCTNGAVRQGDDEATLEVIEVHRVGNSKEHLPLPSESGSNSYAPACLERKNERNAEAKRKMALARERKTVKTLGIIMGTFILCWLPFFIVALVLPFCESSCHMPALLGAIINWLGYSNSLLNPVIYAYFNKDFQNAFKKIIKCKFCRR
Description: In vitro binding affinity against 5-HT1A receptor of rat hippocampus using [3H]8-OH-DPAT.

Test [2] deals with 5-hydroxytryptamine receptor 2A (Rattus norvegicus, UniProt P14842). Description: In vitro binding affinity against 5-HT2A receptor of rat cerebral cortex using [3H]ketanserin.
5-hydroxytryptamine receptor 2A, sequence (P14842 whole entry): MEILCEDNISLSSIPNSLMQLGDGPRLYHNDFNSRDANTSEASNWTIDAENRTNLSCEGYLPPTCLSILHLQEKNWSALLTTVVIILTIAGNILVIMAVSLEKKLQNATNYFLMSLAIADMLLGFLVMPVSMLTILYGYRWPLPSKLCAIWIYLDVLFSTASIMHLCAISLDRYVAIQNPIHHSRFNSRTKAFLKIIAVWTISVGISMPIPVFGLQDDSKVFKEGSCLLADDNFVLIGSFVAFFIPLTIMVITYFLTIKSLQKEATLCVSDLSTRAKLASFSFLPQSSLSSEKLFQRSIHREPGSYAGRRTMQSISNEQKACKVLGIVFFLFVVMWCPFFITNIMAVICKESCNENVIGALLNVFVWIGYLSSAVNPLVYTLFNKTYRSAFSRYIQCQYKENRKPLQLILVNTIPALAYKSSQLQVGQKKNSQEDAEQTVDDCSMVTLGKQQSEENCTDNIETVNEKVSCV
A further test concerns the target D(2) dopamine receptor (Rattus norvegicus, UniProt P61169). Nature of the test: In vitro binding affinity against Dopamine receptor D2 of rat striatum using [3H]raclopride.
The target of test [3] is T2, Adrenergic receptor alpha-2 (Rattus norvegicus, UniProt P22086+P19328+P22909).
T2 sequence (P22086 whole entry): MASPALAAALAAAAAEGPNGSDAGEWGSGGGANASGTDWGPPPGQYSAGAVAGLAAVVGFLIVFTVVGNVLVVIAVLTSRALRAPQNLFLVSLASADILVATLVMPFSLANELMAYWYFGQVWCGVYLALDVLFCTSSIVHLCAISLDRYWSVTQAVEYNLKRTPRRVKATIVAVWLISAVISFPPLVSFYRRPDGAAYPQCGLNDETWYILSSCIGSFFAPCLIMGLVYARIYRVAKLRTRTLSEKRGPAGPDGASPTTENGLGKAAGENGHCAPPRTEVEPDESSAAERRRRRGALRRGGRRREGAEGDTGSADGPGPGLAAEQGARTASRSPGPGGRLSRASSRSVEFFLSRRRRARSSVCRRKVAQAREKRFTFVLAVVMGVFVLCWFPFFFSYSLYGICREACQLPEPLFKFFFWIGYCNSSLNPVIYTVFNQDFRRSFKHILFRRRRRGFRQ
T2 sequence (P19328 whole entry): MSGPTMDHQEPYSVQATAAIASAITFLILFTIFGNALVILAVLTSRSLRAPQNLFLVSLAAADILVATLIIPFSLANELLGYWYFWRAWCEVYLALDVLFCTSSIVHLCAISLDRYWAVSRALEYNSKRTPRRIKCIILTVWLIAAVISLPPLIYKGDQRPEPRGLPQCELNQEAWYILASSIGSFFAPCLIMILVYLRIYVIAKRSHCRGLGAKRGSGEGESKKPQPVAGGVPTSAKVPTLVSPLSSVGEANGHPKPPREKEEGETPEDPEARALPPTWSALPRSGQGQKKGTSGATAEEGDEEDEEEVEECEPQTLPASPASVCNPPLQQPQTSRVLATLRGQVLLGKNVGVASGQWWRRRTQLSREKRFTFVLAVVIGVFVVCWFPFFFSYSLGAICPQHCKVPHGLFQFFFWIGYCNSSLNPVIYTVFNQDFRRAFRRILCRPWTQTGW
T2 sequence (P22909 whole entry): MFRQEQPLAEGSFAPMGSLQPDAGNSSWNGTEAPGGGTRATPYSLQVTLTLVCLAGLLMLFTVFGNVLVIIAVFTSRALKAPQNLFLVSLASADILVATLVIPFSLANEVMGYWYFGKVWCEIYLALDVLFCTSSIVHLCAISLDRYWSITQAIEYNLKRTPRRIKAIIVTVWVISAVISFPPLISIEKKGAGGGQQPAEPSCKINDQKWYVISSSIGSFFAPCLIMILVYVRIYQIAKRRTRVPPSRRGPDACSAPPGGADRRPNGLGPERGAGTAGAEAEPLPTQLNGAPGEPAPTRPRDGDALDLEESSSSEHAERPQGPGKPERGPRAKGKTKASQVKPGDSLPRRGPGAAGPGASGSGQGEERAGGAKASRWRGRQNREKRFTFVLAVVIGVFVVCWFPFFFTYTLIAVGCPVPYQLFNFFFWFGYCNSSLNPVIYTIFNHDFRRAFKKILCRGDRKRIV
Description: In vitro binding affinity against Alpha-2 adrenergic receptor of rat cerebral cortex using [3H]RX-821002.

The structures appear in SMILES notation.

D(1A) dopamine receptor, sequence (P18901 whole entry): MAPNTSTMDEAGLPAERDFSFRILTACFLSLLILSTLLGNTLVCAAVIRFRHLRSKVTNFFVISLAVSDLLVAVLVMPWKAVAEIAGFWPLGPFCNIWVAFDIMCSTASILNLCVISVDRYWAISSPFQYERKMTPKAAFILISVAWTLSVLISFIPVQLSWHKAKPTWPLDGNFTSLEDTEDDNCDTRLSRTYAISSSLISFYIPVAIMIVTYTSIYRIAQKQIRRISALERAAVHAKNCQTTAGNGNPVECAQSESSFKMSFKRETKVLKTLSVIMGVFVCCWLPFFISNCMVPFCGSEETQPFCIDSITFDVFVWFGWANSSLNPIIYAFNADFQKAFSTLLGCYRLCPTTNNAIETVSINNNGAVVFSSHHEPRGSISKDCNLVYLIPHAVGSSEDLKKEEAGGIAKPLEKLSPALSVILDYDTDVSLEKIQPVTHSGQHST
D(2) dopamine receptor, sequence (P61169 whole entry): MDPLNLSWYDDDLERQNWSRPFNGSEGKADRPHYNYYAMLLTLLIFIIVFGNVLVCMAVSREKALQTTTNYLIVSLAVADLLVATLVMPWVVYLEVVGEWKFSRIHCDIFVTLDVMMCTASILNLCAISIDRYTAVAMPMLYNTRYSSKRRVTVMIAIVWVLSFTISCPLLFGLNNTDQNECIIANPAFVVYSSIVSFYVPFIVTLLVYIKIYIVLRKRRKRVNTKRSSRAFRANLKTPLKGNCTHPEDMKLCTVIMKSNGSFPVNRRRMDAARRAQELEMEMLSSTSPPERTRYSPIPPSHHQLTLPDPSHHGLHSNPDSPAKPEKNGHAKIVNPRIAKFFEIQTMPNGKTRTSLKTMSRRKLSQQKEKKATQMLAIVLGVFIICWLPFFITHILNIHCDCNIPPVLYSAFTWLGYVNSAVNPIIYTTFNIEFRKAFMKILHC

For `O=C1c2ccccc2S(=O)(=O)N1CCCCN1CCC(c2ccc(Cl)cc2)C1` (stereo not given), the Ki at D(1A) dopamine receptor was 1.57 µM; in test [1] it was 0.0026 µM; in test [2] it was 0.232 µM; at D(2) dopamine receptor it was 0.327 µM; in test [3] it was 0.056 µM.
With `O=C1c2ccccc2CN1CCCCN1CCC(c2ccccc2)C1` (stereo not given), the Ki on D(1A) dopamine receptor turned out to be 1.95 µM; in test [1], 0.0115 µM; in test [2] it was 0.046 µM; at D(2) dopamine receptor it was 0.077 µM; in test [3] it was 0.011 µM.
For the molecule `O=C(c1cccc(CN2CCC(c3ccccc3)C2)c1)N1CCCCC1` (stereo not given), the Ki at D(1A) dopamine receptor turned out to be 88.1 µM; in test [1], 0.0306 µM; in test [2] it was 0.32 µM; on D(2) dopamine receptor, 0.783 µM; in test [3], 0.024 µM.
Consider `O=C1c2ccccc2CN1CCCCN1CCC(c2ccc(Cl)cc2)C1` (stereo not given), for which the Ki on D(1A) dopamine receptor worked out at 1.62 µM; in test [1], 0.0304 µM; in test [2] it was 0.184 µM; on D(2) dopamine receptor, 0.185 µM; in test [3], 0.012 µM.
For `O=C(c1cccc(CN2CCC(c3ccc(Cl)cc3)C2)c1)N1CCCCC1` (stereo not given), the Ki at D(1A) dopamine receptor is 37.6 µM; in test [1] it was 0.0153 µM; in test [2], 0.046 µM; on D(2) dopamine receptor it was 0.334 µM; in test [3], 0.044 µM.
As for `O=C1c2ccccc2S(=O)(=O)N1CCCCN1CCC(c2ccccc2)C1` (stereo not given), the Ki is 12.5 µM at D(1A) dopamine receptor; 0.0027 µM in test [1]; 0.034 µM in test [2]; 0.195 µM on D(2) dopamine receptor; 0.016 µM in test [3].
Regarding `O=C1c2ccccc2S(=O)(=O)N1CCCCN1CCC(c2ccc(F)cc2)C1` (stereo not given), the Ki at D(1A) dopamine receptor is 6.67 µM; in test [1] it was 0.0042 µM; in test [2] it was more than 0.367 µM; at D(2) dopamine receptor it was 0.263 µM; in test [3], 0.334 µM.
